According to paper PMC10877577 (ACS Chemical Biology, 2024):
Entries after “also recorded” stand apart in the source; their conditions may differ. Read-outs that look alike come from different tables or passages of the source.

Tests used:
[1] = tested on: HEK-293T transduced with the aMinoC1 transmembrane receptor; experiment: Flow cytometry of peptide-muIgG2a Fc binding to cells with aMinoC1 transmembrane receptor; format: cell-based, human; settings: GWARA, HWAQA, PWAYS, QWAMM, increasing minocycline, caffeine 100 μM
Experimental: Flow cytometry was performed using the MACSQuant Analyzer 10 or MACSQuant X (Miltenyi Biotec). All flow cytometry data was analyzed using FlowJo v.7.6.2 software (Tree Star Inc., Ashland, OR). Cell staining was carried out by incubation with PBS containing the recommended concentration of antibodies at RT for 30 min. PBS washes were carried out between antibody staining. Cell viability was determined using viability dye SYTOX Blue Dead Cell Stain (ThermoFisher) prior to flow cytometric analysis. Cells were first gated for singlet population identified by FSC-H and FSC-A. Next, live cells were identified using a viability dye, followed by gating for target cell populations. The antibodies used in the study are as follows: CD3 PECy7 (Biolegend, 317334), Human CD34 APC-conjugated antibody (R&D system, FAB7227A), Human CD34 Alexa Fluor 488-conjugated antibody (R&D system, FAB7227G), Streptavidin PE (Biolegend, 405204), APC antihuman EGFR antibody (Biolegend, 352905), Alexa Fluor 488 antihuman EGFR antibody (Biolegend, 352907), PE anti-HA.11 Epitope Tag antibody (Biolegend, 901517), Anti-M13-HRP (Sino Biologics, 1197 mm05T-H), Anti-Myc-HRP (Genscript, A00863), and SYTOX Blue Dead Cell Stain (ThermoFisher, S10274).

[2] = in vivo; cited from earlier work
[3] = tested on: aMinoC1 sdAb; experiment: ELISA of CX7C-muIgG2a-Fc peptide fusions on aMinoC1 with or without minocycline; format: binding, alpaca; settings: 1 μM minocycline
[4] = tested on: Nalm6 EGFR+ tumor; experiment: Xenograft model with NALM6, BLI readout; format: in vivo, NSG mice; settings: minocycline hydrochloride 0.4 mg i.p. every 2–3 days; day 7 to 13 post CAR-T
Experimental: All animal studies were carried out in accordance with a UK Home Office-approved project license and were approved by the UCL Biological Services Ethical Review Committee. NSG mice (female, aged 6–10 weeks) were acquired from Charles River Laboratories and raised under pathogen-free conditions. On day 4, 0.5 × 10^6 Nalm6 cells engineered to express EGFR and HA-luciferase were injected intravenously into NSG mice. Tumor engraftment was assessed through bioluminescence imaging, employing the IVIS Spectrum system (PerkinElmer) following intraperitoneal injection of 2 mg D-luciferin. Photon emission from EGFR^+ NALM6-FLuc cells, expressed in photon per second per cm^2 per steradian, was quantified using Living Image software (PerkinElmer). On day 0, mice were randomly assigned to different cohorts prior to intravenous injection of 1 × 10^6 CAR T cells. The experiment was conducted without blinding; however, the use of bioluminescence imaging provides an objective assessment of tumor growth in this model. […] Intraperitoneal injection of 100 μL (0.4 mg) was administered every 2–3 days.

[5] = tested on: MinoCAR-transduced PBMC against SKOV3 EGFR+ target cells; experiment: Tunability and reversibility assays (Incucyte kinetics of cytotoxicity); format: cell-based, human; settings: minocycline 0 to 10 μM, 1:2 E/T
Experimental: EGFR+ SKOV3-mKate cells were seeded at 1.0 × 10^4 cells per well in a TC-treated flat-bottomed 96-well plate. For reversibility experiments, MinoCAR ON–OFF kinetics were tested by preactivating CAR T cells by incubating cells for 2 h on plates precoated with recombinant EGFR (10 μg/mL). CAR T cells were washed using 15 mL of PBS prior to coculture. […] Cells were then washed using 15 mL of PBS prior to coculture. Untreated CAR T cells were used as a control and were directly preceded to coculturing set. […] The Incucyte ZOOM Live-Cell Analysis System was used to carry out image capture at a rate of one image every 1 h for 150 h. […] The image capture rate of each condition was set at 1 image per hour for 72 h.

[6] = tested on: MinoCAR-transduced PBMC against SupT1-EGFR+ target cells; format: cell-based; settings: compared to 0 μM minocycline
Experimental: Transduced CAR T cells were determined by staining for the transduction marker RQR8 and normalized by the addition of nontransduced T cells. Effector cells were cocultured with 5.0 × 10^4 number of target cells (SupT1-NT, SupT1-EGFR+, SKOV3-mKate) to achieve the desired effector cell to target ratio. […] Cocultures were incubated for 24–72 h at 37 °C and 5% CO2. After incubation, plates were centrifuged at 400g for 5 min, and the supernatant containing secreted cytokines was collected for cytokine analysis. Cells were stained with anti-hCD34-APC and anti-CD3-PeCy7 to differentiate effector T cells and target cells. Cells were washed with 300 μL o PBS and stained with SYTOX Blue Dead Cell Stain dye. The percentage of target cell survival was measured relative to the number of live target cells cocultured with nonspecific CAR T cells or nontransduced PBMCs.

[7] = tested on: GWARA-flexi-IL12 secretion from transduced PBMCs; experiment: IL12 secretion assay (KDEL retention system); format: cell-based, human; settings: minocycline up to 2.5 μM
Experimental: (§1) IFN-γ, IL2, and IL12 secretion was measured by collecting the supernatant from the respective cell-based assay and frozen at −20 °C prior to analysis by ELISA. IFN-γ, IL2, and IL12 ELISAs were carried out using the Human IFN-γ ELISA MAX Deluxe kit, Human IL2 ELISA MAX Deluxe kit, and Human IL12 (p70) ELISA MAX Deluxe kit in accordance with the manufacturer’s instructions (BioLegend).
Transduced PBMCs were stained for the independent HA expression marker by using an anti-HA-PE antibody to determine transduction efficiency. Cells were normalized to 60% using nontransduced T cells prior to assay set up. For the assay set up, 0.5 × 10^4 transduced cells were cultured in RPMI (RPMI-1640) supplemented with 10% fetal bovine serum (FBS), 2 mM GlutaMAX, and IL2 at a concentration of 100 UI/mL. […] IL12 ELISA was carried out following manufacturer’s instructions (BioLegend, 431704).

[8] = tested on: MinoCAR-transduced PBMC against SupT1-EGFR+ target cells; experiment: Cytokine release of MinoCAR PBMCs; format: cell-based, human; settings: minocycline supplementation, 24 h, 1:2 E/T
Experimental: Transduced CAR T cells were determined by staining for the transduction marker RQR8 and normalized by the addition of nontransduced T cells. Effector cells were cocultured with 5.0 × 10^4 number of target cells (SupT1-NT, SupT1-EGFR+, SKOV3-mKate) to achieve the desired effector cell to target ratio. Where appropriate, minocycline was supplemented as a part of the culture conditions. Cocultures were incubated for 24–72 h at 37 °C and 5% CO2. After incubation, plates were centrifuged at 400g for 5 min, and the supernatant containing secreted cytokines was collected for cytokine analysis. Cells were stained with anti-hCD34-APC and anti-CD3-PeCy7 to differentiate effector T cells and target cells. Cells were washed with 300 μL o PBS and stained with SYTOX Blue Dead Cell Stain dye. The percentage of target cell survival was measured relative to the number of live target cells cocultured with nonspecific CAR T cells or nontransduced PBMCs.
as §1

Q: For `CN(C)c1ccc(O)c2c1C[C@H]1C[C@H]3[C@H](N(C)C)C(O)=C(C(N)=O)C(=O)[C@@]3(O)C(O)=C1C2=O` [minocycline], which “peptide-muIgG2a Fc binding to membrane-bound aMinoC1 in presence of small molecule” value [1] is on record?
A: The value was “Dose-dependent reduction of peptide-muIgG2a Fc binding”.

Q: What about the “peptide-muIgG2a Fc binding to membrane-bound aMinoC1 in presence of small molecule” value ([1]; listed as Minocycline) of the same compound?
A: Its value is “concentration-dependent reduction in peptide binding”.

Q: What about the “blood–brain barrier crossing” value [2] of the same compound?
A: The value was “can cross the blood–brain barrier”.

Q: And the half-life in blood [2]?
A: The half-life in blood was 12 to 24 h.

Q: What about the “time of serum concentration peak” value [2] of the same compound?
A: Its value is 2 to 3 h.

Q: What about the “ELISA detection of peptide-Fc on aMinoC1 in presence of minocycline” value [3] of the same compound?
A: Its value is “out-competed peptide-Fc conjugates”.

Q: And the “effect of minocycline on MinoCAR efficacy (BLI)” value [4]?
A: Its value is “Significant inhibition of MinoCAR; also recorded: significantly reduced MinoCAR efficacy”.

Q: And the “SKOV3 target cell killing kinetics” value [5]?
A: Its value is “dose-dependent decrease in SKOV3 target cell killing”.

Q: And the “increase in target cell survival” value ([6]; 24 h)?
A: The value was 2.5 fold.

Q: What about the “increase in target cell survival” value ([6]; 72 h) of the same compound?
A: The value was 35 fold.

Q: And the IL12 release ([7]; day 2, aMinoC1-KDEL construct)?
A: The IL12 release was “up to 150 pg/mL”.

Q: What about the IL12 release ([7]; day 7, aMinoC1-KDEL construct) of the same compound?
A: Its IL12 release is at most 2.2 µg/mL.

Q: What about the “reduction (minus) of IFN-γ secretion” value [8] of the same compound?
A: The value was 2.7 fold.

Q: And the “reduction (minus) of IL2 secretion” value [8]?
A: The value was 1.9 fold.
